From patent publication US20220315594A1, “METHOD OF SYNTHESIS OF COMPOUND FOR DUAL INHIBITION OF JAK2 AND BET” (OHM ONCOLOGY, priority 2019, published 2022)

How the values were obtained:
Conditions in all cases: qualitative statement
JAK2 signaling = JAK2 signaling down-regulation; assay type: cell-based
[1] = test system: multiple liquid cancer cell lines; assay: Anti-proliferative activity against liquid cancer cell lines; assay type: cell-based
BRD4 BD1 = BRD4 BD1 (Homo sapiens, UniProt O60885); assay: In vitro biochemical assay, BRD4 BD1 inhibition
JAK2 = JAK2 (Homo sapiens, UniProt O60674); assay: In vitro biochemical assay, JAK2 inhibition
Chain of JAK2 (O60674 whole entry): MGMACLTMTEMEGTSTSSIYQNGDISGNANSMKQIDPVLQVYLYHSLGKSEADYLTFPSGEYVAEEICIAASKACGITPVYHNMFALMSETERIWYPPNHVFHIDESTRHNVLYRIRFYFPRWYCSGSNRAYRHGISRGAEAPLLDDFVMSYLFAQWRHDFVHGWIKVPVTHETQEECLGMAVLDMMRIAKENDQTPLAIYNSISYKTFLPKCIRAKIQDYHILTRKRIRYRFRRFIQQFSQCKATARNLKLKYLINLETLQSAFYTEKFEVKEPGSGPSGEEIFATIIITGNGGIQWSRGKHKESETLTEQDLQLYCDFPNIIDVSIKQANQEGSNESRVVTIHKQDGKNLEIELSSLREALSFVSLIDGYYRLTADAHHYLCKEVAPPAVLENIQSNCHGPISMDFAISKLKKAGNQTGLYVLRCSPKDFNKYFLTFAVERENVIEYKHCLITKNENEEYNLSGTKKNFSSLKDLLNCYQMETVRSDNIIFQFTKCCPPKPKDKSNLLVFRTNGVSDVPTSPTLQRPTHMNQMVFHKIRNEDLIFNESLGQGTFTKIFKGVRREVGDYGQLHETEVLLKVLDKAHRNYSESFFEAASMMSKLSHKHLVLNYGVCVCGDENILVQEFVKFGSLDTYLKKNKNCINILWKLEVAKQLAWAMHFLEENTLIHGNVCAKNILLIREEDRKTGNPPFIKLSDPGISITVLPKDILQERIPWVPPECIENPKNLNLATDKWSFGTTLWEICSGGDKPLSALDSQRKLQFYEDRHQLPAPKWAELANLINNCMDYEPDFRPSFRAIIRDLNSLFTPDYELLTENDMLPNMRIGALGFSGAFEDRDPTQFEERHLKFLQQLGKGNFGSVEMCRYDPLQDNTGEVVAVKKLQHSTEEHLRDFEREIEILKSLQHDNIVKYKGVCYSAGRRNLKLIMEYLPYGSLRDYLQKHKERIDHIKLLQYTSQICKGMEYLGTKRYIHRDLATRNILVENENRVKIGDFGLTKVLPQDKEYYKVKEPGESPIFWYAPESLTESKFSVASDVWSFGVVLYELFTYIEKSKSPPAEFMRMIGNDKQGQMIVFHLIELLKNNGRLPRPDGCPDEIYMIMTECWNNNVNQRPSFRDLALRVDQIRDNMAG

cMYC expression = cMYC expression down-regulation; assay type: cell-based
BRD4 BD2 = BRD4 BD2 (Homo sapiens, UniProt O60885); assay: In vitro biochemical assay, BRD4 BD2 inhibition

CN(C)C1CCN(c2ccc(Nc3ncc4ccn(-c5cccc(NS(=O)(=O)C(C)(C)C)c5)c4n3)cc2F)CC1 [OHM-581, N-(3-(2-((4-(4-(dimethylamino)piperidin-1-yl)-3-fluorophenyl)amino)-7H-pyrrolo[2,3-d]pyrimidin-7-yl)phenyl)-2-methylpropane-2-sulfonamide]
JAK2 signaling (JAK2 signaling): robustly down-regulates
anti-proliferative activity [1]: significant anti-proliferative activity
inhibition of BRD4 BD1 (BRD4 BD1): inhibit
inhibition of JAK2 (JAK2): inhibit
cMYC expression (cMYC expression): robustly down-regulates
inhibition of BRD4 BD2 (BRD4 BD2): inhibit
